We go through 1 compound from US20110064713A1 (priority 2009, published 2011).

This test deals with DU-145 cells. The class given is cell-based, Human.

Molecules are shown by their SMILES.

For `C=C1[C@@H](C)[C@H]2[C@H](Cc3ccccc3)NC(=O)[C@]23[C@H](OC(C)=O)/C=C/[C@@](C)(O)C(=O)[C@@H](C)C/C=C/[C@H]3[C@@H]1O` [Cytochalasin-D], the “Relative Wound Density at 24 Hours, Mean” value was 3.3 ± 0.2; the “Relative Wound Density at 24 Hours, Percent Relative to Media” value is reported as 4%; the “effect on cell migration” value is listed as “did not migrate”.
